Reference: patent US9023789B2, “Amylin analogs and pharmaceutical compositions thereof” (Novo Nordisk A/S, priority 2012, dated 2015)
Numbered stars: 1 amine (or outer) side, 2 acyl side, 3 side chain; on linkers, the order of the positions; unused ones are H or OH. Bridge positions count the residues as written; N and C are the ends. Peptide text beside a SMILES is read from it. * marks the point of attachment. C20 diacid = O=C(O)CCCCCCCCCCCCCCCCCCC(=O)*; γGlu = O=C(O)[C@H](CCC(=O)[*:2])N[*:1]

Target: T1, rat amylin receptor (rat calcitonin receptor + rat RAMP 3) (Rattus norvegicus, UniProt P32214+Q9JJ73)
T1 construct: expressed in transfected cells; host or cells: BHK tk'ts 13 (transient, FuGENE 6), membranes
T1 sequence (P32214 25-479 isoform P32214-2 limits assumed): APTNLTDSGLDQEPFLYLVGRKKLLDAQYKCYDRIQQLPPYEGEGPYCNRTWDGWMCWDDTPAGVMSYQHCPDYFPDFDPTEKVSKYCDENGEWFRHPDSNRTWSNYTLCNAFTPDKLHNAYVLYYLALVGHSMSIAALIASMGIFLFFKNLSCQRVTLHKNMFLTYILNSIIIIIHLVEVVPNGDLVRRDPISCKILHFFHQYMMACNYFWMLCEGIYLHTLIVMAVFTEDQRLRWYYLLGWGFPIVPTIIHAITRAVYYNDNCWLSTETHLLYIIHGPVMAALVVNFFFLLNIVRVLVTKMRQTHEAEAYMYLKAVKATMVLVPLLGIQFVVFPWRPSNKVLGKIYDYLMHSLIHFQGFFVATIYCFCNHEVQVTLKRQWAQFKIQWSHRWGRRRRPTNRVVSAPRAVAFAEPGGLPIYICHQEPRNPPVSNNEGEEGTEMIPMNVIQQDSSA
T1 sequence (Q9JJ73 23-147 partner): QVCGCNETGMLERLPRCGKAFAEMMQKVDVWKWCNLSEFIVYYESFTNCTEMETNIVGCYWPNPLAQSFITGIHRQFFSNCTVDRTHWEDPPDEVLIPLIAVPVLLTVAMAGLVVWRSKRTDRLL
Test: ASSAY (VI) binding to the rat amylin receptor
Conditions: for IC50: binding to rat amylin receptor, read-out: rAmylin-R bind IC50
Outline: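 The cell-membrane assay assessed binding at the rat amylin receptor. BHK tk′ts 13 cells were transfected transiently with rat calcitonin receptor, with FuGENE® 6 (Roche) as the transfection reagent, used per the manufacturer's recommendations. Approximately 48 hours after transfection the cells were harvested, and membranes were prepared for measuring binding.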

[1] = Table 7, rat binding selectivity, rCTR IC50 / rAmylin-R IC50
[2] = Table 7a (preferred compounds), rat binding selectivity, rCTR IC50 / rAmylin-R IC50
[3] = ratio of rCTR bind IC50 to rAmylin-R bind IC50

Compound	IC50 (Table 7)	Ratio rCT/rAmylin binding [1]	Ratio rCT/rAmylin binding [2]	Ratio rCT/rAmylin binding [3]
CC[C@H](C)[C@H](NC(=O)[C@H](C)NC(=O)CNC(=O)[C@H](Cc1ccccc1)NC(=O)[C@H](CC(N)=O)NC(=O)[C@@H]1CCCN1C(=O)[C@H](CO)NC(=O)[C@H](CO)NC(=O)[C@H](Cc1c[nH]cn1)NC(=O)[C@H](CCCNC(=N)N)NC(=O)[C@H](CC(C)C)NC(=O)[C@H](Cc1ccccc1)NC(=O)[C@H](CCC(=O)O)NC(=O)[C@H](C)NC(=O)[C@H](CC(C)C)NC(=O)[C@H](CCCNC(=N)N)NC(=O)[C@H](CCC(N)=O)NC(=O)[C@@H](NC(=O)[C@H](C)NC(=O)[C@@H]1CSSC[C@H](NC(=O)[C@H](CCCCN)NC(=O)CC[C@H](NC(=O)CCCCCCCCCCCCCCCCCCC(=O)O)C(=O)O)C(=O)N[C@@H](CC(N)=O)C(=O)N[C@@H]([C@@H](C)O)C(=O)N[C@@H](C)C(=O)N[C@@H]([C@@H](C)O)C(=O)N1)[C@@H](C)O)C(=O)N1CCC[C@H]1C(=O)N[C@@H](CO)C(=O)N[C@@H](CO)C(=O)N[C@H](C(=O)N[C@@H](CC(N)=O)C(=O)N[C@H](C(=O)NCC(=O)N[C@@H](CO)C(=O)N[C@@H](CCC(=O)O)C(=O)N[C@H](C(=O)N[C@@H](Cc1ccc(O)cc1)C(N)=O)[C@@H](C)O)C(C)C)[C@@H](C)O [Example 22] ({C20 diacid-γGlu}-KCNTATCATQRLAEFLRHSSPNFGAIPSSTNVGSETY-NH2; disulfide 2-7)	2.19 nM	28.5	28.5	28.5
CC[C@H](C)[C@H](NC(=O)[C@H](C)NC(=O)CNC(=O)[C@H](Cc1ccccc1)NC(=O)[C@H](CC(N)=O)NC(=O)[C@@H]1CCCN1C(=O)[C@H](CO)NC(=O)[C@H](CO)NC(=O)[C@H](Cc1c[nH]cn1)NC(=O)[C@H](CCCNC(=N)N)NC(=O)[C@H](CC(C)C)NC(=O)[C@H](Cc1ccccc1)NC(=O)[C@H](Cc1c[nH]cn1)NC(=O)[C@H](C)NC(=O)[C@H](CC(C)C)NC(=O)[C@H](CCCNC(=N)N)NC(=O)[C@H](CCC(N)=O)NC(=O)[C@@H](NC(=O)[C@H](C)NC(=O)[C@@H]1CSSC[C@H](NC(=O)[C@H](CCCNC(=N)N)NC(=O)CNC(=O)CC[C@H](NC(=O)CCCCCCCCCCCCCCCCCCC(=O)O)C(=O)O)C(=O)N[C@@H](CC(N)=O)C(=O)N[C@@H]([C@@H](C)O)C(=O)N[C@@H](C)C(=O)N[C@@H]([C@@H](C)O)C(=O)N1)[C@@H](C)O)C(=O)N1CCC[C@H]1C(=O)N[C@@H](CO)C(=O)N[C@@H](CO)C(=O)N[C@H](C(=O)N[C@@H](CC(N)=O)C(=O)N[C@H](C(=O)NCC(=O)N1CCC[C@H]1C(=O)N[C@@H](CC(N)=O)C(=O)N[C@H](C(=O)N[C@@H](Cc1ccc(O)cc1)C(N)=O)[C@@H](C)O)C(C)C)[C@@H](C)O [Example 102] ({C20 diacid-γGlu}-GRCNTATCATQRLAHFLRHSSPNFGAIPSSTNVGPNTY-NH2; disulfide 3-8 (inferred))	0.674 nM	97.7	97.7	97.7
